Where a SMILES comes first, the peptide text is derived from it. [ ]: non-standard residue; d: D form. Dmt = Cc1cc(O)cc(C)c1C[C@H](N)C(=O)O
Legend:
[1] = Acrylamide dynamic quenching; type: physicochemical
[2] = system: LUVs containing 20 mol% TOCL in POPC; assay: Endogenous 2',6'-Dmt fluorescence measurement of SS-31 membrane binding; details: for increase in SS-31 emission intensity relative to emission in the absence of LUVs: 20% TOCL, mean (SD), n=6, SD; for n value ([L]eff:[P] at saturation) from time course titration inflection point: 20 mol% TOCL
[3] = system: LUVs containing 20 mol% MLCL in POPC; assay: as above; details: 20% MLCL, mean (SD), n=6
[4] = system: LUVs containing 20% POPG; assay: Acrylamide dynamic quenching; type: binding; details: 20 μM SS-31 with LUVs 20% POPG, n=3
[5] = system: LUVs containing 20% MLCL; assay: Acrylamide dynamic quenching; type: binding; details: 20 μM SS-31 with LUVs 20% MLCL, n=3
[6] = system: LUVs containing 10 mol% TOCL; assay: SS-31 titration time course binding saturation analysis; details: low salt
[7] = system: LUVs with POPC only; assay: Endogenous 2',6'-Dmt fluorescence measurement of SS-31 membrane binding; details: 100% POPC, high salt (100 mM KCl), 20 μM SS-31, [L]eff 100 µM, mean (SD), n=6
[8] = system: LUVs containing 20 mol% POPG in POPC; assay: as above; details: for increase in SS-31 emission intensity relative to emission in the absence of LUVs: 20% POPG, mean (SD), n=6, SD
[9] = system: LUVs containing 20% TOCL; assay: Acrylamide dynamic quenching; type: binding; details: 20 μM SS-31 with LUVs 20% TOCL, n=3
[10] = aqueous buffer, comparison of SS-31 with L-Tyr (Fig. S3C), n=3

Row | SMILES | Stern-Volmer constant KSV (acrylamide quenching) [1, 10] | increase in SS-31 emission intensity relative to emission in the absence of LUVs ([2]; high salt (100 mM KCl)) | increase in SS-31 emission intensity relative to emission in the absence of LUVs ([2]; low salt, 20 μM SS-31, [L]eff 100 µM) | n value ([L]eff:[P] at saturation) from time course titration inflection point ([2]; high salt) | n value ([L]eff:[P] at saturation) from time course titration inflection point ([2]; low salt, SS-31 added in 2 µM increments, acrylamide in medium) | increase in SS-31 emission intensity relative to emission in the absence of LUVs ([3]; high salt (100 mM KCl)) | increase in SS-31 emission intensity relative to emission in the absence of LUVs ([3]; low salt) | Stern-Volmer constant KSV (acrylamide quenching) ([4]; high salt) | Stern-Volmer constant KSV (acrylamide quenching) ([4]; low salt) | Stern-Volmer constant KSV (acrylamide quenching) ([1]; 20 μM SS-31 in the absence of membranes, high salt (100 mM KCl)) | Stern-Volmer constant KSV (acrylamide quenching) ([1]; 20 μM SS-31 in the absence of membranes, low salt) | Stern-Volmer constant KSV (acrylamide quenching) ([5]; high salt) | Stern-Volmer constant KSV (acrylamide quenching) ([5]; low salt) | n value ([L]eff:[P] at saturation) from time course titration inflection point [6] | increase in SS-31 emission intensity relative to emission in the absence of LUVs [7] | increase in SS-31 emission intensity relative to emission in the absence of LUVs ([8]; high salt (100 mM KCl)) | increase in SS-31 emission intensity relative to emission in the absence of LUVs ([8]; low salt) | n value ([L]eff:[P] at saturation) from time course titration inflection point ([8]; 20 mol% POPG, low salt) | Stern-Volmer constant KSV (acrylamide quenching) ([9]; high salt) | Stern-Volmer constant KSV (acrylamide quenching) ([9]; low salt)
1 | N[C@@H](Cc1ccc(O)cc1)C(=O)O [L-Tyr, reference compound] | 17.1 M⁻¹ | – | – | – | – | – | – | – | – | – | – | – | – | – | – | – | – | – | – | –
2 | Cc1cc(O)cc(C)c1C[C@H](NC(=O)[C@H](N)CCCNC(=N)N)C(=O)N[C@@H](CCCCN)C(=O)N[C@@H](Cc1ccccc1)C(N)=O [SS-31, D-Arg-2’6’-dimethylTyr-Lys-Phe-NH2] (H-[dR][Dmt]KF-NH2) | 4.8 M⁻¹ | 1.72 (0.08) | 2.33 (0.07) | ~ 9 | ~ 5 | 1.79 (0.05) | 2.48 (0.05) | 2.19 M⁻¹ | 0.21 M⁻¹ | 5.4 M⁻¹ | 5.7 M⁻¹ | 1.04 M⁻¹ | 0.02 M⁻¹ | ~ 12 | 1.08 (0.04) | 1.45 (0.04) | 2.16 (0.04) | ~11 | 1.20 M⁻¹ | 0.15 M⁻¹
